Results reported in PubChem BioAssay (NCI).
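Abbreviation: GI50, concentration required for 50% inhibition of growth. TGI denotes the concentration required for complete inhibition of growth.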 Where a SMILES comes first, the peptide text is derived from it. [ ]: non-standard residue; d: D form. The star is where a group is joined. Dolaproine = CO[C@@H]([C@@H]1CCCN1)[C@@H](C)C(=O)O; Dil = CC[C@H](C)[C@H](NC)[C@@H](CC(=O)O)OC; X2 = C[C@@H](N*)[C@@H](O)c1ccccc1; NMeV = CN[C@H](C(=O)O)C(C)C

Legend:
Test in all cases: NCI tumour cell line growth inhibition, 384-well format
[1] = test system: NCI-H226 lung
[2] = test system: NCI-H23 lung
[3] = test system: NCI-H322M lung
[4] = test system: NCI-H460 NSCLC
[5] = test system: NCI-H522 lung
[6] = test system: NCI/ADR-RES ovarian
[7] = test system: OVCAR-3 ovarian
[8] = test system: OVCAR-4 ovarian
[9] = test system: OVCAR-5 ovarian
[10] = test system: OVCAR-8 ovarian
[11] = test system: RPMI-8226 leukemia
[12] = test system: RXF 393 renal
[13] = test system: SF-268 CNS
[14] = test system: SF-295 CNS
[15] = test system: SF-539 CNS
[16] = test system: SK-MEL-2 melanoma
[17] = test system: SK-MEL-5 melanoma
[18] = test system: SK-OV-3 ovarian
[19] = test system: SN12C renal
[20] = test system: SNB-19 CNS
[21] = test system: SR leukemia
[22] = test system: SW-620 colon
[23] = test system: T-47D breast
[24] = test system: TK-10 renal
[25] = test system: U251 glioblastoma
[26] = test system: UACC-257 melanoma
[27] = test system: UACC-62 melanoma
[28] = test system: UO-31 renal

For CC[C@H](C)[C@@H]([C@@H](CC(=O)N1CCC[C@H]1[C@H](OC)[C@@H](C)C(=O)N[C@H](C)[C@@H](O)c1ccccc1)OC)N(C)C(=O)[C@@H](NC(=O)[C@@H](NC)C(C)C)C(C)C (H-[NMeV]V[Dil][Dolaproine]-X2), the TGI [1] was under 10 nM, the GI50 [2] was under 10 nM and the TGI [2] was under 10 nM. For the same compound, the GI50 [3] was under 10 nM, the TGI [3] was over 100 µM and the GI50 [4] was under 10 nM. The TGI [4] was under 10 nM, the GI50 [5] was under 10 nM and the TGI [5] was under 10 nM. For the same compound, the GI50 [6] was 105 nM, the TGI [6] was 266 nM and the GI50 [7] was under 10 nM. The TGI [7] was under 10 nM, the GI50 [8] was under 10 nM and the TGI [8] was 24.3 µM. For the same compound, the GI50 [9] was under 10 nM, the TGI [9] was over 100 µM and the GI50 [10] was under 10 nM. The TGI [10] was under 10 nM, the GI50 [11] was under 10 nM and the TGI [11] was under 10 nM. The GI50 [12] was under 10 nM, the TGI [12] was under 10 nM and the GI50 [13] was under 10 nM. For the same compound, the TGI [13] was under 10 nM, the GI50 [14] was under 10 nM and the TGI [14] was under 10 nM. The GI50 [15] was under 10 nM, the TGI [15] was under 10 nM and the GI50 [16] was under 10 nM. The TGI [16] was under 10 nM, the GI50 [17] was under 10 nM and the TGI [17] was under 10 nM. For the same compound, the GI50 [18] was under 10 nM, the TGI [18] was under 10 nM and the GI50 [19] was under 10 nM. It also gave a TGI [19] of over 100 µM, a GI50 [20] of under 10 nM and a TGI [20] of under 10 nM. It also gave a GI50 [21] of under 10 nM, a TGI [21] of under 10 nM and a GI50 [22] of under 10 nM. The TGI [22] was over 100 µM, the GI50 [23] was under 10 nM and the TGI [23] was over 100 µM. The GI50 [24] was under 10 nM, the TGI [24] was over 100 µM and the GI50 [25] was under 10 nM. It also gave a TGI [25] of under 10 nM, a GI50 [26] of under 10 nM and a TGI [26] of 12.7 µM. The GI50 [27] was under 10 nM, the TGI [27] was under 10 nM and the GI50 [28] was under 10 nM. The TGI [28] was over 100 µM.
